Values of other authors, collected in US20200038305A1, “Sunscreen or Sunblock Composition” (Divios LLC, priority 2018, published 2020).

## C=C(C)[C@@H]1CCC(C)=C[C@H]1c1c(O)cc(CCCCC)cc1O [CBD, cannabidiol]
  Aqueous solubility: 10 µg/mL
